Data taken from US20060134225A1, “Phosphate binder with reduced pill burden” (priority 2004, published 2006).

Key:
adult beagle dogs = test: Dog study, urine phosphate excretion; format: in vivo; conditions: oral capsules, 2250 mg elemental lanthanum twice daily
Description: The doses were administered 30 minutes after provision of food to the animals. At least 14 days washout was allowed between the crossover arms. Plasma was obtained pre-dose and 1.5, 3, 6, 7.5, 9, 12, 24, 36, 48, 60, and 72 hours after dosing and analyzed for lanthanum using ICP-MS. Urine was collected by catheterization before and approximately 24 hours after dosing and creatinine and phosphorus concentrations measured.

[1] = test system: adult Sprague-Dawley rats; test: In vivo study in 5/6 nephrectomized rats, urine phosphorus excretion; parameters: species or system rat; conditions: 314 mg elemental lanthanum/kg/day oral, 14 days, compared to untreated rats
Description: Groups of six adult Sprague-Dawley rats underwent ⅚th nephrectomy in two stages over a period of 2 weeks and were then allowed to recover for a further two weeks prior to being randomized for treatment. The groups received vehicle (0.5% w/v carboxymethyl cellulose), or lanthanum oxycarbonate suspended in vehicle, once daily for 14 days by oral […] (10 ml/kg/day). The dose delivered 314 mg elemental lanthanum/kg/day. Dosing was carried out immediately before the dark (feeding) cycle on each day. Urine samples (24 hours) were collected prior to surgery, prior to the commencement of treatment, and twice weekly during the treatment period. Volume and phosphorus concentration were measured.
Feeding—During the acclimatization and surgery period, the animals were given Teklad phosphate sufficient diet (0.5% Ca, 0.3% P; Teklad No. TD85343), ad libitum. At the beginning of the treatment period, animals were pair fed based upon the average food consumption of the vehicle-treated animals the previous week.
5/6 Nephrectomy—After one week of acclimatization, all animals were subjected to 5/6 nephrectomy surgery. The surgery was performed in two stages. First, the two lower branches of the left renal artery were ligated. One week later, a right nephrectomy was performed. […]

Row | Compound | urine phosphate excretion (marker of phosphorous binding) (adult beagle dogs) | phosphorus excretion in urine (marker of dietary phosphorus binding) [1]
1 | O=C([O-])[O-].[La+3].[OH-] [compound A, LaCO3OH] | reduction of urine phosphate excretion | 
2 | O=C([O-])[O-].[La+3].[La+3].[O-2].[O-2] [compound B, La2O2CO3] | reduction of urine phosphate excretion | 
3 | O=C([O-])[O-].[La+3].[OH-] [lanthanum carbonate hydroxide] |  | decrease in phosphorus excretion
4 | lanthanum oxycarbonate |  | decrease in phosphorus excretion
